# Earlier results as cited in patent US4231928A, “Antibacterial agents” (priority 1979, dated 1980).
# Test system: Pseudomonas aeruginosa
# Conditions: prior art penicillins; cited from earlier work
smiles,measurement,value
CC1(C)S[C@@H]2[C@H](NC(=O)[C@H](C(=O)O)c3ccsc3)C(=O)N2[C@H]1C(=O)O [ticarcillin],potency against Pseudomonas aeruginosa (in words),only a relatively low potency
